This is an account of results in patent publication US20220106275A1, “RADIOLABELED COMPOUNDS AND USES THEREOF” (The Trustees of Columbia University in the City of New York, priority 2019, published 2022).

A value given as a limit tells only on which side of the number the result lay.

In data set [1] the test system is COX-2-positive BxPC3 cells. Kind of data set: Cell uptake of [18F]FMTP in COX-2-positive BxPC3 cells, with blocking. In kind it is cell-based, human.
Data set [2] concerns COX-2. As to conditions: cited from earlier work.
The test system of data set [3] is COX-2. To be noted: baboon brain; cited from earlier work.
Data set [4] addresses T1, COX-2 (Homo sapiens, UniProt P35354).
T1 sequence (P35354 18-604): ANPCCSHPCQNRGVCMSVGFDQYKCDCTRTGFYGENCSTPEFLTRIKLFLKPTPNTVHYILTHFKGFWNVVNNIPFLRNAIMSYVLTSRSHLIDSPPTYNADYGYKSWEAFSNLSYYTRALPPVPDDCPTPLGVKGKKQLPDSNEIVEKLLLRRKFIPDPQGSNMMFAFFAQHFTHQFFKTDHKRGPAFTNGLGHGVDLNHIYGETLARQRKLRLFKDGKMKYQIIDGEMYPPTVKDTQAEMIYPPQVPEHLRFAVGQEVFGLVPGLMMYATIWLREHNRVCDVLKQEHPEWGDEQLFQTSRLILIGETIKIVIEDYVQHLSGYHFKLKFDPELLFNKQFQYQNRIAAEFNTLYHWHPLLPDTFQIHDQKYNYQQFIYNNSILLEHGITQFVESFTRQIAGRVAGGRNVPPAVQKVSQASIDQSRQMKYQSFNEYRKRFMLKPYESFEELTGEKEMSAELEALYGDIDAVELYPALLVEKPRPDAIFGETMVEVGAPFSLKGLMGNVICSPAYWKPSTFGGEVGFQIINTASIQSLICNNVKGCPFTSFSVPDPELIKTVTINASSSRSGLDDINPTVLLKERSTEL
To be noted: cited from earlier work.

For data set [5], the target named is T2, COX-2 (Mus musculus, UniProt Q05769).
T2 construct: from tissue; host or cells: brain of living male white mice, LPS- or PBS-injected
T2 sequence (Q05769 18-604): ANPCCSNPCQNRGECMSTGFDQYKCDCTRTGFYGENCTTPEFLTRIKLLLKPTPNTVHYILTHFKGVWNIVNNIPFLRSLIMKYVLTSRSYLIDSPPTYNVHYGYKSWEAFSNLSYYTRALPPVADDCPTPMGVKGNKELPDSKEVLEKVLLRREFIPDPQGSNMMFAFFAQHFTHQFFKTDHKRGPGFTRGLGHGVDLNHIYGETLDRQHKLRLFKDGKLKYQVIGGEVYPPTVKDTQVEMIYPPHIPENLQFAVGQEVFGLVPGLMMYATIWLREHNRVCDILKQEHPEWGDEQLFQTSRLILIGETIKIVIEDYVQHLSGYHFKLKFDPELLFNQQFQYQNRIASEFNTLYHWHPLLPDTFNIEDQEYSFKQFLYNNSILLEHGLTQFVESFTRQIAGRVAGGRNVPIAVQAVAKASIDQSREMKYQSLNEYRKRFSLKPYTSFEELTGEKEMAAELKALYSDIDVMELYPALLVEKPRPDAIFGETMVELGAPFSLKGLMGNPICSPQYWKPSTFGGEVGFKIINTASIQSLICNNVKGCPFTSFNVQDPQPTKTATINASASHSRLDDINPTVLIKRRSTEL
Kind of data set: MicroPET imaging of [18F]FMTP in LPS-induced neuroinflammation mice vs PBS-treated mice. To be noted: 24 hours after intracranial 5 μg LPS (FIG. 5). In kind it is in vivo. Here is the method: (§1) The radiochemical synthesis of [^18F]FMTP and [^18F]FMPP were optimized using a chlorine-to-fluorine displacement method, by reacting ^18F-fluoride/K222/K2CO3 with the corresponding chlorine precursor molecules. […] Dynamic microPET image acquisition was performed in anesthetized nude mice, LPS-induced neuroinflammation mice, and PBS-administered control mice using […].
Animals (male white mice) were anesthetized with isoflurane (l %-2% isoflurane in 100% oxygen) using a nose cone, and a 29-gauge needle connected to a catheter was placed into the lateral tail vein. For neuroinflammation, mice were stereotactically injected with 5 μg of LPS or PBS (controls) in the brain and imaging experiments conducted 24 hours later. […] The standardized uptake values (“SUVs”) were estimated using a calibration factor calculated from the phantom study and time activity curves (“TACs”) were derived from VOIs in the series of reconstructed images.
FIGS. 3A-3D show the summed early frames (0-10 minute) and total frames (0-40 minute) of microPET images. […] TACs also indicated an initial rapid influx of radioactivity followed by rapid washout (FIG. 4). […] Highest radioactivity outside the heart was found in liver, and the delay to peak at 5-10 minutes was probably due to the accumulation of radioactive metabolite(s). […]

Data set [6] has as its system COX-2-negative PANC-1 cells. The experiment in a line: Cell uptake of [18F]FMTP in COX-2-negative PANC-1 cells, with blocking. In kind it is cell-based, human. On the procedure:
as §1
BxPC3 and PANC-1 human pancreas carcinoma cell lines were plated on a 24-well plate at 2×10^5 cells/well. After 48 hours, [^18F]FMTP was added (2.0 μCi/mL) to the cell medium for 30 minutes. […] After incubation with [^18F]FMTP, cells were washed 4 times with cold PBS, lysed with 0.1 N NaOH, and counted in a gamma counter (Hidex AMG, LabLogic, Tampa, Fla.).
Proof-of-concept and selectivity of [^18F]FMTP binding to COX-2 was examined by evaluating the tracer uptake in COX-2-positive BxPC3 and a control COX-2-negative PANC1 human pancreatic carcinoma cell lines. FIG. 2 illustrates a >2-fold uptake of [^18F]FMTP in BxPC3 cells compared with PANC1 cells. Values shown in FIG. 2 are the mean±standard deviation (“SD”) from four independent experiments.

Data set [7] can be described thus: Dynamic microPET imaging of [18F]FMTP in normal mice. It counts as in vivo. On the procedure:
as §1
Animals (male white mice) were anesthetized with isoflurane (l %-2% isoflurane in 100% oxygen) using a nose cone, and a 29-gauge needle connected to a catheter was placed into the lateral tail vein. For neuroinflammation, mice were stereotactically injected with 5 μg of LPS or PBS (controls) in the brain and imaging experiments conducted 24 hours later. The animal was placed in prone position on the platform of the scanner and moved into the center of the field of view guided by laser beam calibration. Immediately after scan start, [^18F]FMTP (˜2.5 MBq […] in 20% ethanol-saline solution) was injected through the tail-vein catheter manually. The error caused by the injector and catheter was corrected by subtracting the remaining dose. 40-minute dynamic imaging was acquired on a microPET scanner (Siemens Inveon). The acquired list-mode data were reconstructed with 3D ordered subset expectation maximization (OSEM) algorithm using the software of Siemens Inveon Acquisition Workplace with a framing protocol of 2×30 seconds, 4×60 seconds, 3×120 seconds, 3×180 seconds, and 4×300 seconds. Using PMOD software (version 4.0, Switzerland), three-dimensional ellipsoid volume of interests (“VOIs”) ranging from 2-to-6 mm were placed manually at the center of the brain, heart (blood-pool), liver, proximal humerus (bone), and posterior cervical muscle. The standardized uptake values (“SUVs”) were estimated using a calibration factor calculated from the phantom study and time activity curves (“TACs”) were derived from VOIs in the series of reconstructed images.
FIGS. 3A-3D show the summed early frames (0-10 minute) and total frames (0-40 minute) of microPET images. Crosses in FIGS. 3A-3D represent the region with brain. […] TACs also indicated an initial rapid influx of radioactivity followed by rapid washout (FIG. 4). The uptake of [^18F]FMTP peaked around 1 minute in heart and brain, and then decreased rapidly. The absence of retention of [^18F]FMTP activity in these organs was predicted due to low COX-2 expression in normal mouse brain. Highest radioactivity outside the heart was found in liver, and the delay to peak at 5-10 minutes was probably due to the accumulation of radioactive metabolite(s). […] The binding of [^18F]FMTP in LPS-induced neuroinflammation in mice was studied in comparison to vehicle (PBS)-treated-mice. Intracranial injection of LPS in mice is known to generate COX-2 induction and neuroinflammation after around 24 hours. Therefore, PET imaging of LPS treated mice was performed after 24 hours with [^18F]FMTP, and an approximately 2-fold increase of tracer binding was found in brain compared with PBS-treated mice (FIG. 5). […] MicroPET data correlated with autoradiography performed in brain sections of microPET imaged animals using [^18F]FMTP.

Another data set concerns xenografts. To be noted: cited from earlier work.

Turning to `CS(=O)(=O)c1ccc(-c2nc(F)cc(NCc3nccs3)n2)cc1` [FMTP], the “blocking of [18F]FMTP binding in BxPC3 cells” value in data set [1] (blocker 5 μM added 30 minutes before [18F]FMTP) was “substantially blocked”.

`COc1cc(NCc2cccs2)nc(-c2ccc(S(C)(=O)=O)cc2)n1` [MC1]: the “specific binding in CNS and periphery organs” value in the data set with COX-2 [2] (cold (non-radiolabeled) MC1) is listed as “no specific binding”.

In the case of `CS(=O)(=O)c1ccc(-c2nc(NCc3cccs3)cc(O[11CH3])n2)cc1` [[^11C]MC1, [^11C]-6-methoxy-2-(4-(methylsulfonyl)phenyl)-N-(thiophen-2-ylmethyl)pyrimidin-4-amine], the “binding to COX-2 in neuroinflammation” value in the data set on COX-2 [2] (animal models of neuroinflammation) was “increased binding to COX-2”. In the data set with COX-2 [2] (conditions without inflammation), the “detection of constitutive or low level COX-2 in brain” value was “failed to detect”.

Take `CS(=O)(=O)c1ccc(-c2noc(C(F)(F)F)c2-c2ccccc2)cc1` [[^11C]TMI, [^11C]-3-(4-methylsulfonylphenyl)-4-phenyl-5-trifluoromethyl isoxazole]: in the data set with COX-2 [3], the “blocking of constitutive COX-2 level in brain” value was “partial blocking”.

For `CS(=O)(=O)c1ccc(-c2nc(F)cc(NCc3nccs3)n2)cc1` [[^18F]FMTP, [^18F]-6-fluoro-2-(4-(methylsulfonyl)phenyl)-N-(thiazol-2-ylmethyl)pyrimidin-4-amine], the IC50 at COX-2 [4] is 2.5 nM.

On to `CS(=O)(=O)c1ccc(-c2nc([18F])cc(NCc3nccs3)n2)cc1` [[^18F]FMTP, [^18F]-6-fluoro-2-(4-(methylsulfonyl)phenyl)-N-(thiazol-2-ylmethyl)pyrimidin-4-amine], for which the “increase of tracer binding in brain of LPS-treated compared with PBS-treated mice” value on COX-2 [5] was “approximately 2 fold”. Moreover, in data set [6] (2.0 μCi/mL, 30 minutes), the “binding to PANC1 cells” value is on record as “negligible binding”. In data set [6] (blockers 5 μM), the “specific binding in PANC1 cells with FMTP or celecoxib block” value was “no specific binding”. The “uptake in spine and skeleton (de[18F]fluorination)” value in data set [7] (microPET) is “did not show uptake in spine and skeleton”. Also, the “washout of activity from brain” value in data set [7] (microPET, 0-40 minute) is reported as “fast washout”. In addition, in data set [7] (microPET, tail-vein injection), the BBB penetration result is recorded as “penetrated the BBB”. Also, the “time of peak uptake in heart and brain” value in data set [7] (time activity curves (FIG. 4)) is recorded as “around 1 minute”. The “time of peak radioactivity in liver” value in data set [7] (time activity curves, delay ascribed to radioactive metabolite(s)) was 5 to 10 min. Besides, the “uptake of [18F]FMTP in BxPC3 cells compared with PANC1 cells” value in data set [1] (2.0 μCi/mL, 30 minutes, mean of four independent experiments (FIG. 2)) is greater than 2 fold.

Turning to `CS(=O)(=O)c1ccc(-c2cc(C(F)(F)F)nc(NCc3ccc([18F])cc3)n2)cc1` [[^18F]Pyricoxib], in the data set on xenografts, the “binding in xenografts in vivo” value is listed as “only modest binding”. Moreover, the uptake in brain entry in the data set on xenografts (in vivo) is reported as “did not show significant uptake in brain”.
